Laboratory results from patent US20230233500A1, “Gasdermin D (GSDMD) Succination for the Treatment of Inflammatory Disease” (University of Massachusetts, priority 2020, published 2023).
Where a name gives a salt, the structure may show the parent alone.

Experiments:
[1] = system: GSDMD-deficient THP1 cells; test: Kinetic cell death in GSDMD-/- THP1 cells; type: cell-based, human
Source text: FIGS. 3A-J. Fumarate targets GSDMD and Gasdermin E (GSDME). Kinetic cell death of WT and Gsdmd-BMDMs (A) or WT/GSDMD^-/- THP1 cells (B) treated as indicated. LDH and IL-1β release from WT and Gsdmd^-/- BMDMs (C-D). Immunoblot of GSDMD and GSDME in native and reduced cell lysates from BMDMs (E). Immunoblot of GSDME in streptavidin pulldown from clicked lysates (F). Representative Mass spectra of succinated GSDME (G-H). Immunoblot analysis of GSDMD and GSDME from WT and […]^-/- BMDMs (I). A, B representative of three independent experiments. C, D, I pooled data from three independent experiments. E, F, J representative images from 3 independent experiments. ***, P<0.0001, […] (Two-way ANOVA). Error bars show means±SEM. Cells were plated, treated and incubated in phenol red free medium. Following treatment medium was collected and assessed for LDH release using the CytoTox96 non-radioactive cytotoxicity assay (Promega) as per manufacturer's instructions. Kinetic cell death assays were performed using SytoxOrange and the Biotek Cytation5.

m.GSDMD = biological target: T1, m.GSDMD (Mus musculus, UniProt Q9D8T2); test: In vitro succination reaction with LC-MS/MS peptide mapping; type: binding; conditions: recombinant m.GSDMD
T1 sequence (Q9D8T2 1-487): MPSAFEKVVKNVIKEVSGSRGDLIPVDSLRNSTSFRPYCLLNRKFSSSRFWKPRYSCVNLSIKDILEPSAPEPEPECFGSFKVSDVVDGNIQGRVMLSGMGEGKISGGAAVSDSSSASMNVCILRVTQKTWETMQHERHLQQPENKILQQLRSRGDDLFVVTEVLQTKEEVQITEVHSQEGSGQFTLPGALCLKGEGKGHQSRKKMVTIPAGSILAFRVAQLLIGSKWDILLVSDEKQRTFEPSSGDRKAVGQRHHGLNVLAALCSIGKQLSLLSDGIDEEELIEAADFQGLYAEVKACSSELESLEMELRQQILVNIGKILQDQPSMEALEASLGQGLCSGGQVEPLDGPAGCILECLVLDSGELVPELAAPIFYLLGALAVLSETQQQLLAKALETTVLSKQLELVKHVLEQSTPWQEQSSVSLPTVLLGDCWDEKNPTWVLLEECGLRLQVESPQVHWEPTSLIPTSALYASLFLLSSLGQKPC

[2] = biological target: T2, caspase 1-GSDMD interactions (Mus musculus, UniProt Q9D8T2); test: Caspase 1-GSDMD interaction and caspase 1 processing in BMDMs; type: cell-based
T2 construct: Immunoblots of casplp20 and GSDMD in BMDMs (I); endogenous in cells; host or cells: primary mouse BMDMs
T2 sequence (Q9D8T2 1-487): T1 sequence (Q9D8T2 1-487)
Source text: FIGS. 2A-J. Succination of GSDMD inhibits pyroptosis. Immunoblot of GSDMD in streptavidin pulldown from clicked lysates treated as indicated (A-B). Representative MS spectra of 2-monomethyl and 2-dimethylsuccination of GSDMD immunoprecipitated from fumarate treated BMDMs (C-D). Immunoblot of GSDMD in clicked lysates from transfected HEK293T. Cell death of HEK293T transfected as indicated (F-H). Immunoblots of casplp20 and GSDMD in BMDMs (I). Immunoblots of an in vitro binding assay of succinated and non-succinated GSDMD incubated with caspase 1 beads (J). A, B, F, J, […] representative images from three independent experiments. C, D, E, representative mass spec spectra from two independent experiments. H, I pooled data from three independent experiments. ***, P<0.001 (One-way anova). Error bars show means±SEM.
Primary BMDMs from WT or GsdmD^−/− mice were cultured in 12-well plates (1×10^6 cells per ml; 1 ml) or 10 cm dishes (2×10^6 cells per ml; 10 ml). HEK293T cells (2.5×10^5 cells per ml; 3 ml) were cultured in 6-well plates and transfected with FLAG-tagged GSDMD constructs where indicated. For cell lysate analysis cells were lysed directly in 1× Lamelli sample buffer. […] Samples were resolved by SDS-PAGE and stained using simply blue safe stain or transferred to nitrocellulose membranes and analyzed by immunoblot. […]

In the case of `COC(=O)/C=C/C(=O)OC` [Fumarate, Dimethyl fumarate], the cell death [1] is reported as “inhibited cell death”, the “In vitro cysteine succination sites” value (m.GSDMD) is reported as “same cysteines” and the “processing of caspase 1” value ([2]; casp1 p20 immunoblot) is reported as “not impaired”. For the same compound, the “caspase 1-GSDMD interactions” value ([2]; immunoblots) was “completely blocked”.
